This is an account of results in ChEMBL document CHEMBL1129710, “Glycomimetic selectin inhibitors: (-D-mannopyranosyloxy)methylbiphenyls” (Bioorg Med Chem Lett, 1996).

For test [1], the system named is HL-60. The test can be described thus: Compound was tested for its ability to inhibit sialyl Lewis X (sLex, IC50 = 2 mM) dependent binding of HL-60 cells to P-selectin fusion protein. The test is classed as functional.
In test [2] the test system is HL-60. The test can be described thus: Compound was tested for its ability to inhibit sialyl Lewis X dependent binding of HL-60 cells to P-selectin fusion protein. The test is classed as functional, cell-based. The following applies: Homo sapiens.
The target in another test is T1, E-selectin (Mus musculus, UniProt Q00690).
T1 sequence (Q00690 whole entry): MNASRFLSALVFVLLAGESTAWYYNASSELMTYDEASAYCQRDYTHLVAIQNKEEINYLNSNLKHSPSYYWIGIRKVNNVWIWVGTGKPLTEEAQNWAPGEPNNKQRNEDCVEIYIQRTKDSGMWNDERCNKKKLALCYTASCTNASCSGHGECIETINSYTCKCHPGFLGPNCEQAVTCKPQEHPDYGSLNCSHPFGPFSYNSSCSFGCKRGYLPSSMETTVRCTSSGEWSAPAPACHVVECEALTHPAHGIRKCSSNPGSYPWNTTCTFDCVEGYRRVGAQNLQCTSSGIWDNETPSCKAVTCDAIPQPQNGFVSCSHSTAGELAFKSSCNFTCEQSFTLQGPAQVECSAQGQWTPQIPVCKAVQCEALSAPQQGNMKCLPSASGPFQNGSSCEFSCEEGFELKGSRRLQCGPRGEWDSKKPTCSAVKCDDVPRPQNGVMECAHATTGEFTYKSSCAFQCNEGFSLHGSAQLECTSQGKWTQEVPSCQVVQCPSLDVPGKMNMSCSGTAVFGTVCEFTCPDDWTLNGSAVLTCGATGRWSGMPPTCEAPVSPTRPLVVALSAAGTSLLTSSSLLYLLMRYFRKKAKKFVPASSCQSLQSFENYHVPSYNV
Briefly: Compound was tested for its ability to inhibit sialyl Lewis X dependent binding of HL-60 cells to Selectin E fusion protein.

The subject of test [3] is HL-60. The test can be described thus: Compound was tested for its ability to inhibit sialyl Lewis X (sLex, IC50 = 2 mM) dependent binding of HL-60 cells to P-selectin fusion protein; Not assayed. The test is classed as functional, cell-based.

The structures appear in SMILES notation. Activity calls are given as the source filed them. The calls are words filed in the database; no cut-off is given here.

Turning to `O=C(O)c1cccc(-c2cccc(CO[C@H]3O[C@H](CO)[C@@H](O)[C@@H](O)[C@@H]3O)c2)c1`, the Ratio in the test with HL-60 [1] amounted to 2.5.

Turning to `CC(=O)N[C@H]1[C@H]([C@H](O)[C@H](O)CO)O[C@@](O[C@H]2[C@@H](O)[C@@H](CO)O[C@@H](O[C@@H]([C@H](O[C@@H]3O[C@@H](C)[C@@H](O)[C@@H](O)[C@@H]3O)[C@H](C=O)NC(C)=O)[C@H](O)CO)[C@@H]2O)(C(=O)O)C[C@@H]1O` [SIALYL LEWIS X], the IC50 with HL-60 [2] amounted to 2000 µM; on E-selectin it was 3000 µM.

Take `O=C(O)COc1ccc(-c2cccc(CO[C@H]3O[C@H](CO)[C@@H](O)[C@@H](O)[C@@H]3O)c2)cc1`: the Ratio in the test on HL-60 [1] worked out at 1.2.

Take `Cc1cc(-c2cccc(CO[C@H]3O[C@H](CO)[C@@H](O)[C@@H](O)[C@@H]3O)c2)cc(C)c1OCC(=O)O`: the Ratio in the test with HL-60 [1] turned out to be 0.5.

Consider `O=C(O)Cc1ccc(-c2cccc(CO[C@H]3O[C@H](CO)[C@@H](O)[C@@H](O)[C@@H]3O)c2)cc1`, for which the Ratio in the test on HL-60 [1] is recorded as greater than 20.

In the case of `O=C(O)Cc1cccc(-c2ccccc2CO[C@H]2O[C@H](CO)[C@@H](O)[C@@H](O)[C@@H]2O)c1`, the Ratio result in the test on HL-60 [3] was “inactive”.

For `O=C(O)CCC(=O)c1ccc(-c2cccc(CO[C@H]3O[C@H](CO)[C@@H](O)[C@@H](O)[C@@H]3O)c2)cc1`, the Ratio with HL-60 [1] is >>10.

Take `O=C(O)COc1cccc(-c2cccc(CO[C@H]3O[C@H](CO)[C@@H](O)[C@@H](O)[C@@H]3O)c2)c1`: in the test on HL-60 [1], the Ratio is listed as 4.8.

As to `O=C(O)Cc1cccc(-c2ccc(CO[C@H]3O[C@H](CO)[C@@H](O)[C@@H](O)[C@@H]3O)cc2)c1`, the Ratio with HL-60 [1] is listed as >>2.3.

Regarding `O=C(O)Cc1cccc(-c2cccc(CO[C@H]3O[C@H](CO)[C@@H](O)[C@@H](O)[C@@H]3O)c2)c1`, the Ratio in the test with HL-60 [1] was found to be 1.2.
